Patent publication US10681909B2, “Herbicidal triazoles” (FMC Corporation, priority 2014, dated 2020)

Tests used:
barnyardgrass [1] = assay: Test A preemergence; assay type: in vivo, Echinochloa crus-galli; settings: Echinochloa crus-galli, pre-emergence, 240 h, 0 to 100 scale (0 no effect, 100 complete control), read-out: Plant response rating, Barnyardgrass
In short: (§1)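 For preemergence, seeds were sown in a loam soil-sand blend and given a directed soil spray of test chemical in a non-phytotoxic solvent mixture with surfactant. For postemergence, plants in pots of the same blend were sprayed with the same formulation at the one- to two-leaf stage, 2 to 10 cm tall.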

barnyardgrass [2] = assay: Test A postemergence; assay type: in vivo, Echinochloa crus-galli; settings: Echinochloa crus-galli, post-emergence, 240 h, 0 to 100 scale (0 no effect, 100 complete control), approx. 10 d, read-out: Plant response rating, Barnyardgrass
In short: as §1

wheat = assay: Test A postemergence; assay type: in vivo, Triticum aestivum; settings: Triticum aestivum, post-emergence, 240 h, 0 to 100 scale (0 no effect, 100 complete control), approx. 10 d, read-out: Plant response rating, Wheat
In short: as §1

corn = assay: Test A postemergence; assay type: in vivo, Zea mays; settings: Zea mays, post-emergence, 240 h, 0 to 100 scale (0 no effect, 100 complete control), approx. 10 d
In short: as §1

rice = assay: Test B flooded paddy test; assay type: in vivo, Oryza sativa; settings: Oryza sativa, 360 h, 125 g ai/ha, applied to paddy water at 2-leaf stage, visual rating after 13 to 15 d, scale 0 (no effect) to 100 (complete control), read-out: Plant response rating, Rice, Flood
In short: (§2)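 Pots were flooded to 3 cm above the soil at treatment, and compounds were applied directly into the paddy water. That depth was held throughout. After 13 to 15 d in a greenhouse, plants were rated visually against untreated controls.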

sedge, umbrella = assay: Test B flooded paddy test; assay type: in vivo, Cyperus difformis; settings: Cyperus difformis, 360 h, 125 g ai/ha, applied to paddy water at 2-leaf stage, visual rating after 13 to 15 d, scale 0 (no effect) to 100 (complete control), read-out: Plant response rating, Sedge, Umbrella, Flood
In short: as §2

barnyardgrass [3] = assay: Test B flooded paddy test; assay type: in vivo, Echinochloa crus-galli; settings: Echinochloa crus-galli, 360 h, 125 g ai/ha, applied to paddy water at 2-leaf stage, visual rating after 13 to 15 d, scale 0 (no effect) to 100 (complete control), read-out: Plant response rating, Barnyardgrass, Flood
In short: as §2

blackgrass = assay: Test C postemergence; assay type: in vivo, Alopecurus myosuroides
In short: (§3)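 Surfactant-containing, non-phytotoxic solvent formulations of each compound were applied either preemergence to seeds in a loam soil–sand blend or postemergence to plants 2 to 18 cm tall (1- to 4-leaf stage). Postemergence plants were grown in peat moss–vermiculite medium.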

ryegrass, Italian = assay: Test C postemergence; assay type: in vivo, Lolium multiflorum
In short: as §3

wheat (winter wheat) = assay: Test C postemergence; assay type: in vivo, Triticum aestivum
In short: as §3

foxtail, giant = assay: Test C postemergence; assay type: in vivo, Setaria faberii
In short: as §3

lambsquarters = assay: Test C postemergence; assay type: in vivo, Chenopodium album
In short: as §3

morningglory = assay: Test C postemergence; assay type: in vivo, Ipomoea coccinea
In short: as §3

nutsedge, yellow = assay: Test C postemergence; assay type: in vivo, Cyperus esculentus
In short: as §3

pigweed = assay: Test C postemergence; assay type: in vivo, Amaranthus retroflexus
In short: as §3

oilseed rape = assay: Test C postemergence; assay type: in vivo, Brassica napus
In short: as §3

waterhemp = assay: Test C postemergence; assay type: in vivo, Amaranthus rudis
In short: as §3

chickweed = assay: Test C postemergence; assay type: in vivo, Stellaria media
In short: as §3

oat, wild = assay: Test C postemergence; assay type: in vivo, Avena fatua
In short: as §3

kochia = assay: Test C postemergence; assay type: in vivo, Kochia scoparia
In short: as §3

Compound: CCOc1nc(-c2ccc(F)cc2)nn1Cc1ccnc(C(F)(F)F)c1 [Compound 8, 4-[[5-ethoxy-3-(4-fluorophenyl)-1H-1,2,4-triazol-1-yl]methyl]-2-(trifluoromethyl)pyridine]
- pest or weed control at 125 g/ha (barnyardgrass [1]; 125 g ai/ha): 100%
- pest or weed control at 500 g/ha (barnyardgrass [1]; 500 g ai/ha, approx. 10 d): 100%
- pest or weed control at 125 g/ha (barnyardgrass [2]; 125 g ai/ha): 100%
- pest or weed control at 500 g/ha (barnyardgrass [2]; 500 g ai/ha): 100%
- plant injury at 125 g/ha (wheat; 125 g ai/ha): 40%
- plant injury at 500 g/ha (wheat; 500 g ai/ha): 100%
- Corn plant response rating (crop injury, 0 = no effect, 100 = complete kill) at 125 g/ha (corn; 125 g ai/ha): 50%
- Corn plant response rating (crop injury, 0 = no effect, 100 = complete kill) at 500 g/ha (corn; 500 g ai/ha): 90%
- plant injury at 125 g/ha (rice): 50%
- pest or weed control at 125 g/ha (sedge, umbrella): 90%
- pest or weed control at 125 g/ha (barnyardgrass [3]): 50%
- Plant response rating (scale of 0 to 100 where 0 is no effect and 100 is complete control) (blackgrass; 31 g ai/ha): 50
- Plant response rating (scale of 0 to 100 where 0 is no effect and 100 is complete control) (blackgrass; 62 g ai/ha): 40
- Plant response rating (scale of 0 to 100 where 0 is no effect and 100 is complete control) (blackgrass; 125 g ai/ha): 55
- Plant response rating (scale of 0 to 100 where 0 is no effect and 100 is complete control) (blackgrass; 250 g ai/ha): 75
- Plant response rating (scale of 0 to 100 where 0 is no effect and 100 is complete control) (ryegrass, Italian; 31 g ai/ha): 30
- Plant response rating (scale of 0 to 100 where 0 is no effect and 100 is complete control) (ryegrass, Italian; 62 g ai/ha): 35
- Plant response rating (scale of 0 to 100 where 0 is no effect and 100 is complete control) (ryegrass, Italian; 125 g ai/ha): 35
- Plant response rating (scale of 0 to 100 where 0 is no effect and 100 is complete control) (ryegrass, Italian; 250 g ai/ha): 50
- Plant response rating (scale of 0 to 100 where 0 is no effect and 100 is complete control) (wheat (winter wheat); 31 g ai/ha): 30
- Plant response rating (scale of 0 to 100 where 0 is no effect and 100 is complete control) (wheat (winter wheat); 62 g ai/ha): 35
- Plant response rating (scale of 0 to 100 where 0 is no effect and 100 is complete control) (wheat (winter wheat); 125 g ai/ha): 30
- Plant response rating (scale of 0 to 100 where 0 is no effect and 100 is complete control) (wheat (winter wheat); 250 g ai/ha): 40
- Plant response rating (scale of 0 to 100 where 0 is no effect and 100 is complete control) (foxtail, giant; 31 g ai/ha): 20
- Plant response rating (scale of 0 to 100 where 0 is no effect and 100 is complete control) (foxtail, giant; 62 g ai/ha): 40
- Plant response rating (scale of 0 to 100 where 0 is no effect and 100 is complete control) (foxtail, giant; 125 g ai/ha): 55
- Plant response rating (scale of 0 to 100 where 0 is no effect and 100 is complete control) (foxtail, giant; 250 g ai/ha): 85
- Plant response rating (scale of 0 to 100 where 0 is no effect and 100 is complete control) (lambsquarters; 31 g ai/ha): 95
- Plant response rating (scale of 0 to 100 where 0 is no effect and 100 is complete control) (lambsquarters; 62 g ai/ha): 98
- Plant response rating (scale of 0 to 100 where 0 is no effect and 100 is complete control) (lambsquarters; 125 g ai/ha): 95
- Plant response rating (scale of 0 to 100 where 0 is no effect and 100 is complete control) (lambsquarters; 250 g ai/ha): 98
- Plant response rating (scale of 0 to 100 where 0 is no effect and 100 is complete control) (morningglory; 31 g ai/ha): 85
- Plant response rating (scale of 0 to 100 where 0 is no effect and 100 is complete control) (morningglory; 62 g ai/ha): 98
- Plant response rating (scale of 0 to 100 where 0 is no effect and 100 is complete control) (morningglory; 125 g ai/ha): 80
- Plant response rating (scale of 0 to 100 where 0 is no effect and 100 is complete control) (morningglory; 250 g ai/ha): 100
- Plant response rating (scale of 0 to 100 where 0 is no effect and 100 is complete control) (nutsedge, yellow; 31 g ai/ha): 5
- Plant response rating (scale of 0 to 100 where 0 is no effect and 100 is complete control) (nutsedge, yellow; 62 g ai/ha): 10
- Plant response rating (scale of 0 to 100 where 0 is no effect and 100 is complete control) (nutsedge, yellow; 125 g ai/ha): 10
- Plant response rating (scale of 0 to 100 where 0 is no effect and 100 is complete control) (nutsedge, yellow; 250 g ai/ha): 10
- Plant response rating (scale of 0 to 100 where 0 is no effect and 100 is complete control) (pigweed; 31 g ai/ha): 95
- Plant response rating (scale of 0 to 100 where 0 is no effect and 100 is complete control) (pigweed; 62 g ai/ha): 95
- Plant response rating (scale of 0 to 100 where 0 is no effect and 100 is complete control) (pigweed; 125 g ai/ha): 98
- Plant response rating (scale of 0 to 100 where 0 is no effect and 100 is complete control) (pigweed; 250 g ai/ha): 98
- Plant response rating (scale of 0 to 100 where 0 is no effect and 100 is complete control) (oilseed rape; Oilsee Rape, 250 g ai/ha): 95
- Plant response rating (scale of 0 to 100 where 0 is no effect and 100 is complete control) (oilseed rape; Oilseed Rape, 31 g ai/ha): 90
- Plant response rating (scale of 0 to 100 where 0 is no effect and 100 is complete control) (oilseed rape; Oilseed Rape, 62 g ai/ha): 95
- Plant response rating (scale of 0 to 100 where 0 is no effect and 100 is complete control) (oilseed rape; Oilseed Rape, 125 g ai/ha): 95
- Plant response rating (scale of 0 to 100 where 0 is no effect and 100 is complete control) (waterhemp; 31 g ai/ha): 95
- Plant response rating (scale of 0 to 100 where 0 is no effect and 100 is complete control) (waterhemp; 62 g ai/ha): 98
- Plant response rating (scale of 0 to 100 where 0 is no effect and 100 is complete control) (waterhemp; 125 g ai/ha): 95
- Plant response rating (scale of 0 to 100 where 0 is no effect and 100 is complete control) (waterhemp; 250 g ai/ha): 98
- Plant response rating (scale of 0 to 100 where 0 is no effect and 100 is complete control) (chickweed; 31 g ai/ha): 85
- Plant response rating (scale of 0 to 100 where 0 is no effect and 100 is complete control) (chickweed; 62 g ai/ha): 98
- Plant response rating (scale of 0 to 100 where 0 is no effect and 100 is complete control) (chickweed; 125 g ai/ha): 98
- Plant response rating (scale of 0 to 100 where 0 is no effect and 100 is complete control) (chickweed; 250 g ai/ha): 98
- Plant response rating (scale of 0 to 100 where 0 is no effect and 100 is complete control) (oat, wild; 31 g ai/ha): 45
- Plant response rating (scale of 0 to 100 where 0 is no effect and 100 is complete control) (oat, wild; 62 g ai/ha): 50
- Plant response rating (scale of 0 to 100 where 0 is no effect and 100 is complete control) (oat, wild; 125 g ai/ha): 35
- Plant response rating (scale of 0 to 100 where 0 is no effect and 100 is complete control) (oat, wild; 250 g ai/ha): 45
- Plant response rating (scale of 0 to 100 where 0 is no effect and 100 is complete control) (kochia; 31 g ai/ha): 95
- Plant response rating (scale of 0 to 100 where 0 is no effect and 100 is complete control) (kochia; 62 g ai/ha): 95
- Plant response rating (scale of 0 to 100 where 0 is no effect and 100 is complete control) (kochia; 125 g ai/ha): 95
- Plant response rating (scale of 0 to 100 where 0 is no effect and 100 is complete control) (kochia; 250 g ai/ha): 95
